# Counter-ions that a name gives are not always drawn. Like-named read-outs stand apart in the source and are kept apart here.
# Legend:
# [1] = in vivo; cited from earlier work
# [2] = Physical characteristics of TTI-0102 salt forms; type: physicochemical; settings: compared with free base
# Experimental: TTI-0102 was prepared as in Example 14. The crude product was obtained by evaporation of water and DMF. The residue was suspended in ethyl acetate/water; precipitated dicyclohexylurea (DCU) was filtered off. The solution was evaporated and suspended in methanol. The precipitate (unreacted pantothenic acid) was filtered off. The filtrate was concentrated and then dissolved in a small volume of methanol. After addition of dichloromethane the cystamine hydrochloride precipitated and was filtered off. After evaporation of solvent, the residue was crystallized from methanol:acetone (1:10) to provide TTI-1 hydrochloride.
# The tartrate salt was formed and crystallized from a MeOH:DCM mixture. The solid form was filtered off (precipitate) and filtrate was evaporated.
# [3] = Cysteamine and pantetheine in rat gastrointestinal contents six hours after dosing (Example 13); type: in vivo, Sprague-Dawley rats
# Experimental: In addition to the plasma samples, gastrointestinal contents (stomach contents, proximal small intestinal contents, distal small intestinal contents and cecum/colon contents) were obtained from rats at the end of the study (6 hours after dosing) and snap frozen. Tissue levels of cysteamine and pantetheine were measured in the gastrointestinal contents. The protocol for tissue analysis entailed (i) smashing frozen tissue fragments over dry ice to obtain small pieces; (ii) weighing several frozen tissue pieces (˜[…]) into a tared 1.5 ml microcentrifuge tube with two metal ball bearings and immediately storing on dry ice; (iii) homogenizing tissue fragments cryogenically using a Retsch Cryomill at 250 hertz for 5 minutes; (iv) thawing each sample on ice, adding two volumes of water (w:v., i.e. 2 microliters of water were added for each milligram of homogenized tissue) to make an approximately 1:3 dilution; (v) removing 20 ul of the resuspended tissue powder to a new tube, adding 2.2 ul of 50 mM TCEP (5 mM final concentration) and incubating for 45 minutes at 37 degrees C. (TCEP treated samples), or adding 2.2 ul of deioinized water in place of TCEP (no TCEP samples); (vi) adding 3.5 volumes of acetonitrile:0.1% formic acid, vortex mixing for 15 seconds, and then pelleting precipitated protein by centrifugation for 10 minutes at 14,000 rpm in a microcentrifuge at 4 degrees C.; (vii) transferring 25 ul of supernatant to a new tube containing 75 ul of ACN/0.1% FA; (vii) injecting samples on the LC-MS apparatus described above, using the same column and run conditions as for plasma samples.
# [4] = Dissolution of the dose in saline before gavage; type: physicochemical; settings: 120 mg/kg dose (311.68 mg/kg compound 2) in 3 milliliters of saline
# mouse models of HD = settings: cited from earlier work
# [5] = target: T1, tissue transglutaminase (transglutaminase 2, TG2) (Homo sapiens, UniProt P21980); settings: cited from earlier work
# T1 sequence (P21980 1-687): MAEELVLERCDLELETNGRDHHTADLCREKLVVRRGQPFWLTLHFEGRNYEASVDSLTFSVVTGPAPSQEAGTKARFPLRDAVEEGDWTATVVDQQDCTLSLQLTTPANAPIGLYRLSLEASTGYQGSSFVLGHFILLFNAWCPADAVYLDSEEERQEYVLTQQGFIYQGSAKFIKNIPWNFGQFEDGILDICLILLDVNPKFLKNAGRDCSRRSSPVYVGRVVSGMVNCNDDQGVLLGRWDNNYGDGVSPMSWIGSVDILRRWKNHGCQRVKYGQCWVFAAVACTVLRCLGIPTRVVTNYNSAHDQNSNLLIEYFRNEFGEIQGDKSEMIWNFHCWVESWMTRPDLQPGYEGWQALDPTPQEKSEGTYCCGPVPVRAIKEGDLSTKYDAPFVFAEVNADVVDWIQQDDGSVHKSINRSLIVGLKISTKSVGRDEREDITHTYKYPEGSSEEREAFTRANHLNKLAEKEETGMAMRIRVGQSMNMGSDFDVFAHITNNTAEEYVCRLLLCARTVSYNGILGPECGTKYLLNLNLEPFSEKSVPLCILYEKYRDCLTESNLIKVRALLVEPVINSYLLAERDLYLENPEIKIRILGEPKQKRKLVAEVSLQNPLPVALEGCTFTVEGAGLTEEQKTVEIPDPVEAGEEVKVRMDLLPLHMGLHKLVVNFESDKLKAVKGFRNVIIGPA
# [6] = Rat pharmacokinetic study of compound 2: plasma cysteamine after gavage; type: in vivo, Sprague-Dawley rats; settings: cysteamine HCl, 30 mg/kg cysteamine base
# Experimental: The compound 2 doses were prepared for 250 gram rats, but the actual masses of the rats at the time of drug administration varied from 267-300 grams, so the actual doses, normalized to body weight, ranged from 26.1-27.1 mg/kg in group 1, 51.7-56.2 mg/kg in group 2 and 108.3-109.5 mg/kg in group 3. Nonetheless, for convenience those doses are referred to as 30, 60 and 120 mg/kg.
# Plasma was obtained from blood by centrifugation and snap frozen.
# [7] = rat, in vivo
# Experimental: Thus in the discussion below, and in the accompanying figures, a “30 mg/kg” dose of TTI-0102 means 68.73 mg/kg was administered, a “60 mg/kg” dose of TTI-0102 means 137.46 mg/kg was administered and a “100 mg/kg” dose of TTI-0602 (aka compound 2) means 229.1 mg/kg was administered.
# Each of the four compounds was administered via gavage to three male Sprague-Dawley rats weighing approximately 300 grams. All doses were dissolved in 2.5 milliliters of saline.
# Blood samples were obtained from rats immediately after dosing (within one minute) and 10, 20, 30, 45, 60, 90, 120, 180, 240, 300 and 360 minutes after dosing via carotid artery catheters surgically implanted before the PK study. Plasma was obtained from blood by centrifugation, snap frozen and stored at −80 degrees Celsius. Several days later plasma samples were thawed on ice and each aliquoted to two paired tubes (20 μL per tube), one of which was processed for measurement of thiols (after quantitative disulfide bond reduction), while the other was processed for analysis of disulfides.
# Briefly, 2.2 ul of freshly prepared 50 mM TCEP stock solution was added to 20 ul of plasma and the sample incubated at 37 degrees C. for 45 minutes. The volume of plasma in the paired (non-reduced) sample was adjusted by adding 2.2 ul of deionized water.
# After the TCEP reduction step all plasma samples were deproteinized by adding 3.5 volumes of ice cold acetonitrile (ACN)/1% formic acid (FA) solution containing internal standards (77 μL of ACN/1% FA solution was added to 22.2 μL of plasma).
# The denatured protein was pelleted by centrifugation at 14,000 rpm for 10 minutes at 4 degrees C. in a microcentrifuge. The supernatant (25 ul) was removed to a new tube, mixed with 75 ul of ACN/0.1% FA solution and injected directly into a 150×2 mm Atlantis hydrophilic interaction liquid chromatography (HILIC) column (Waters; Milford, Mass.). Metabolites were analyzed using a Nexera X2 U-HPLC (Shimadzu) and a Q-Exactive hybrid quadrupole Orbitrap mass spectrometer (Thermo Fisher Scientific). […]
# [8] = cited from earlier work
# [9] = test system: CYP1A2, CYP2B6, CYP2C8, CYP2C9, CYP2C19, CYP2D6, CYP2E1, CYP2A6, CYP3A4; settings: in vitro; cited from earlier work
# [10] = test system: matrix metalloproteinases (MMPs); settings: high concentrations (e.g. 25 millimolar); cited from earlier work
# xenograft models = settings: cited from earlier work
# Plasmodium Falciparum = settings: in vitro and in mouse models of malaria; cited from earlier work
# [11] = test system: CYP1A2, CYP2A6, CYP2B6, CYP2C8, CYP2C9, CYP2C19, CYP2D6, CYP2E1 and CYP3A4; settings: in vitro; cited from earlier work
# [12] = test system: P-gp, OCT2, BCRP, OATP1B1, OATP1B3, OAT1, OAT3, OCT1; settings: in vitro; cited from earlier work
# Pseudomonas aeruginosa = settings: cited from earlier work
# kidney fibrosis = settings: ureteral stenosis and renal ischemia/reperfusion injury; cited from earlier work
# [13] = test system: erythrocytes from sickle cell anemia patients; settings: cited from earlier work
structure (smiles),measurement,setting,value
CC(C)(COP(=O)(O)O)[C@@H](O)C(=O)NCCC(=O)NCCS [4-phosphopantetheine],half life in blood,[1],over 3 hours
CC(C)(CO)[C@@H](O)C(=O)NCCC(=O)NCCSSCCN [acetate salt of TTI-0102],stability of salt form,[2],more stable than the free base
"CC(C)(CO)[C@@H](O)C(=O)NCCC(=O)NCCSSCCN [compound 1, cysteamine-(R)-pantetheine disulfide]",fraction of small intestinal pantetheine in the form of the thiol,"[3]; compound 1 100 mg/kg, no TCEP vs TCEP samples",about half
same,"pantetheine at all levels of the gastrointestinal tract (stomach, proximal and distal small intestine, colon)","[3]; compound 1 100 mg/kg, six hours after dosing",high levels of pantetheine are present
same,colon contents (TCEP reduced),"[3]; compound 1, six hours after dosing",high concentrations of both cysteamine and pantetheine
"CC(=O)NCCSSCCNC(=O)CCNC(=O)[C@H](O)C(C)(C)CO [compound 2, N-acetylcysteamine-(R)-pantetheine disulfide]",dissolution of dose in saline,[4],did not completely dissolve in saline
NCCSSCCN [cystamine],effects in several mouse models of Huntington's disease,"mouse models of HD; mouse, in vivo",improves motor function and extends life-span
same,inhibition of tissue transglutaminase (TG2),[5],TG2 inhibitor
"Cl.NCCS [cysteamine HCl, cysteamine hydrochloride]",peak plasma cysteamine concentration,[6],over 200 uM
same,time by which cysteamine concentration declined to less than half maximal,[6],≤ 90 min
same,time in which half of the dose is absorbed,[7],one
same,time of peak observed concentration after gavage,[7],10 min
same,Cmax,[7]; 30 mg/kg,~55.3 µM
NCCS [cysteamine bitartrate],Cmax,"[8]; read-out: C max of cysteamine, cysteamine bitartrate 20 mg/kg cysteamine base equivalent",81.9 µM
NCCS.O=C(O)C(O)C(O)C(=O)O (stereo not shown) [cysteamine bitartrate],fraction of cysteamine eliminated by 150 minutes (inferred),[8]; cysteamine bitartrate 20 mg/kg,over 95%
same,time by which cysteamine levels returned to baseline,[8]; cysteamine bitartrate 20 mg/kg,≤ 2 h
same,tissue half life of cysteamine,[8]; cysteamine bitartrate 20 mg/kg,25 to 29 min
"NCCS [cysteamine, 2-aminoethanethiol]",beneficial effects in R6/2 HD mouse model,mouse models of HD; R6/2 mouse model,"amelioration of weight loss and motor abnormalities, and prolongation of survival"
same,"metabolism by CYP1A2, CYP2B6, CYP2C8, CYP2C9, CYP2C19, CYP2D6 and CYP2E1",[9],likely to be metabolized by multiple CYP enzymes
same,metabolism by CYP2A6 or CYP3A4,[9],not by CYP2A6 or CYP3A4
same,inhibition of matrix metalloproteinases,[10],inhibits
same,survival of mice,xenograft models,prolonged survival of mice in a dose-dependent manner without toxicity
same,proliferation of Plasmodium Falciparum,Plasmodium Falciparum,inhibits proliferation
same,"inhibition of CYP1A2, CYP2A6, CYP2B6, CYP2C8, CYP2C9, CYP2C19, CYP2D6, CYP2E1 and CYP3A4",[11],not an inhibitor
same,"substrate of BCRP, OATP1B1, OATP1B3, OAT1, OAT3 and OCT1",[12],not a substrate
same,substrate of P-gp and OCT2,[12],is a substrate
same,activity against Pseudomonas aeruginosa and other CF pathogens,Pseudomonas aeruginosa,bactericidal
same,half life in blood,[1],about 25 minutes
same,efficacy in mouse models of kidney fibrosis,kidney fibrosis,effective
same,sickling under hypoxic conditions,[13],marked inhibition of sickling
same,inhibition of tissue transglutaminase (TG2),[5],inhibits

# Reference: patent publication US11612576B2 (Thiogenesis Therapeutics, Inc., priority 2017, dated 2023)
